≈ marks a conversion by molar mass, not a printed value.
How the values were obtained:
Format in all cases: functional, organism-based
Plasmodium falciparum [1] = assay: Antiplasmodial activity against chloroquine-sensitive Plasmodium falciparum 3D7 infected in human erythrocyte incubated for 72 hrs by SYBR green I staining based fluorescence assay; settings: 3D7, Erythrocyte
Plasmodium yoelii yoelii = assay: Antimalarial activity against hepatic stage Plasmodium yoelii yoelii 265 BY for 48 hrs with media renew every 24 hrs
Plasmodium falciparum [2] = assay: Antimalarial activity against blood stage chloroquine-sensitive Plasmodium falciparum NF54-R infected in erythrocytes assessed as reduction in parasite growth preincubated for 72 hrs followed by addition of [3H]Hypoxanthine and measured after 24 hrs by liquid scintillation counting method; settings: Erythrocyte
Plasmodium falciparum [3] = assay: Antimalarial activity against blood stage chloroquine-sensitive Plasmodium falciparum 3D7 infected in erythrocytes assessed as reduction in parasite growth preincubated for 72 hrs followed by addition of [3H]Hypoxanthine and measured after 24 hrs by liquid scintillation counting method; settings: 3D7, Erythrocyte

| SMILES | IC50 (Plasmodium falciparum [1]) | IC50 (Plasmodium yoelii yoelii) | IC50 (Plasmodium falciparum [2]) | IC50 (Plasmodium falciparum [3]) |
| --- | --- | --- | --- | --- |
| C=CC1CC2CCC1CC2[C@H](OC(=O)[C@H](Cc1ccccc1)NC(=O)C1=CN2C3C(=C(N4CCN(C)CC4)C(F)=CC3C1=O)OC[C@@H]2C)c1cccc2ccc(OC)cc12 (stereo partly drawn) | 48 nM |  |  |  |
| C=CC1CC2CCC1CC2[C@H](OC(=O)[C@H](Cc1ccccc1)NC(=O)C1=CN(CC)C2C=C3OCOC3=CC2C1=O)c1cccc2ccc(OC)cc12 (stereo partly drawn) | 115 nM |  |  |  |
| C=CC1CC2CCC1CC2[C@H](OC(=O)[C@H](C)NC(=O)C1=CN(CC)C2C=C3OCOC3=CC2C1=O)c1cccc2ccc(OC)cc12 (stereo partly drawn) | 29 nM |  |  |  |
| C=CC1CC2CCC1CC2[C@H](OC(=O)CNC(=O)C1=CN(CC)C2C=C(C)C=CC2C1=O)c1cccc2ccc(OC)cc12 (stereo partly drawn) | 46 nM |  |  |  |
| C=CC1CC2CCC1CC2[C@H](OC(=O)CNC(=O)C1=CN(C2CC2)C2C=C(N3CCN(CC)CC3)C(F)=CC2C1=O)c1cccc2ccc(OC)cc12 (stereo partly drawn) | 28 nM |  |  |  |
| C=CC1CC2CCC1CC2[C@H](OC(=O)[C@H](C)NC(=O)C1=CN2C3C(=C(N4CCN(C)CC4)C(F)=CC3C1=O)OC[C@@H]2C)c1cccc2ccc(OC)cc12 (stereo partly drawn) | 33 nM |  |  |  |
| C=CC1CC2CCC1CC2[C@H](OC(=O)CNC(=O)C1=CN2C3C(=C(N4CCN(C)CC4)C(F)=CC3C1=O)OC[C@@H]2C)c1cccc2ccc(OC)cc12 (stereo partly drawn) | 12 nM |  |  |  |
| C=CC1CC2CCC1CC2[C@H](OC(=O)[C@@H](NC(=O)C1=CN(CC)C2C=C(C)C=CC2C1=O)C(C)C)c1cccc2ccc(OC)cc12 (stereo partly drawn) | 16 nM |  |  |  |
| C=CC1CC2CCC1CC2[C@H](OC(=O)[C@@H](NC(=O)C1=CN(CC)C2C=C3OCOC3=CC2C1=O)C(C)C)c1cccc2ccc(OC)cc12 (stereo partly drawn) | 183 nM |  |  |  |
| CCn1nc(C(=O)O)c(=O)c2cc3c(cc21)OCO3 [CINOXACIN] |  | 36.3 µg/mL (≈ 138 µM) | 28.5 µg/mL (≈ 109 µM) | 118 µg/mL (≈ 451 µM) |
| NC1CCN(c2c(F)cc3c(=O)c(C(=O)O)cn(C4CC4)c3c2Cl)C1 (stereo not drawn) [CLINAFLOXACIN] |  | 90.2 µg/mL (≈ 247 µM) | 3.3 µg/mL (≈ 9.02 µM) | 13.7 µg/mL (≈ 37.5 µM) |
| CN1CCN(c2c(F)cc3c(=O)c(C(=O)O)cn(CCF)c3c2F)CC1 [FLEROXACIN] |  | > 100 µg/mL | 12.9 µg/mL (≈ 34.9 µM) | 34.6 µg/mL (≈ 93.7 µM) |
| CC1CCc2cc(F)cc3c(=O)c(C(=O)O)cn1c23 (stereo not drawn) [FLUMEQUINE] |  | > 100 µg/mL | 14.1 µg/mL (≈ 54 µM) | 38.3 µg/mL (≈ 147 µM) |
| COc1c(N2CCNC(C)C2)c(F)cc2c(=O)c(C(=O)O)cn(C3CC3)c12 (stereo not drawn) [GATIFLOXACIN] |  | > 100 µg/mL | 10.9 µg/mL (≈ 29 µM) | 34.8 µg/mL (≈ 92.7 µM) |
| Cc1c(F)c(N2CCNC(C)C2)cc2c1c(=O)c(C(=O)O)cn2C1CC1 (stereo not drawn) [GREPAFLOXACIN] |  | 4.4 µg/mL (≈ 12.2 µM) | 3.1 µg/mL (≈ 8.63 µM) | 4.5 µg/mL (≈ 12.5 µM) |
| CCn1cc(C(=O)O)c(=O)c2cc(F)c(-n3cccc3)cc21 [IRLOXACIN] |  | > 100 µg/mL | 10.5 µg/mL (≈ 35 µM) | 49.4 µg/mL (≈ 165 µM) |
| CN1CCN(c2c(F)cc3c(=O)c(C(=O)O)cn4c3c2OCN4C)CC1 [MARBOFLOXACIN] |  | > 100 µg/mL | 21.6 µg/mL (≈ 59.6 µM) | 30.8 µg/mL (≈ 85 µM) |
| COc1c(N2C[C@@H]3CCCN[C@@H]3C2)c(F)cc2c(=O)c(C(=O)O)cn(C3CC3)c12 [MOXIFLOXACIN] |  | > 100 µg/mL | 18 µg/mL (≈ 44.8 µM) | 44.8 µg/mL (≈ 112 µM) |
| CCn1cc(C(=O)O)c(=O)c2cnc(N3CCNCC3)nc21 [PIPEMIDIC ACID] |  | > 100 µg/mL | 10.5 µg/mL (≈ 34.6 µM) | 40.9 µg/mL (≈ 135 µM) |
| CCn1cc(C(=O)O)c(=O)c2cnc(N3CCCC3)nc21 [PIROMIDIC ACID] |  | 21.6 µg/mL (≈ 74.9 µM) | 14.4 µg/mL (≈ 49.9 µM) | 41.4 µg/mL (≈ 144 µM) |
| CCn1cc(C(=O)O)c(=O)c2ccc(-c3ccncc3)cc21 [ROSOXACIN] |  |  | 10.6 µg/mL (≈ 36 µM) | 87.9 µg/mL (≈ 299 µM) |
| CN1CCN(c2c(F)cc3c(=O)c(C(=O)O)cn4c3c2SCC4)CC1 [RUFLOXACIN] |  | 47.8 µg/mL (≈ 132 µM) | 30.1 µg/mL (≈ 82.8 µM) | 81.9 µg/mL (≈ 225 µM) |
| C[C@@H]1CN(c2c(F)c(N)c3c(=O)c(C(=O)O)cn(C4CC4)c3c2F)C[C@H](C)N1 [SPARFLOXACIN] |  | 53 µg/mL (≈ 135 µM) | 73.9 µg/mL (≈ 188 µM) | 143 µg/mL (≈ 364 µM) |
| CC1CN(c2cc3c(cc2F)c(=O)c(C(=O)O)cn3-c2ccc(F)cc2F)CCN1 (stereo not drawn) [TEMAFLOXACIN] |  | 72.2 µg/mL (≈ 173 µM) | 14.1 µg/mL (≈ 33.8 µM) | 34.9 µg/mL (≈ 83.6 µM) |

From ChEMBL document CHEMBL5244209, “Antiplasmodial and antimalarial activities of quinolone derivatives: An overview” (Eur J Med Chem, 2018)
